Holding throughout (assay): biochemical
Common to all, as to format: binding

Assay [1] concerns the target T1, panel of 442 kinases (Homo sapiens, UniProt O60285).
T1 construct: purchased Ambit Biosciences (scanMAXX KINOMEscan)
T1 sequence (O60285 1-661): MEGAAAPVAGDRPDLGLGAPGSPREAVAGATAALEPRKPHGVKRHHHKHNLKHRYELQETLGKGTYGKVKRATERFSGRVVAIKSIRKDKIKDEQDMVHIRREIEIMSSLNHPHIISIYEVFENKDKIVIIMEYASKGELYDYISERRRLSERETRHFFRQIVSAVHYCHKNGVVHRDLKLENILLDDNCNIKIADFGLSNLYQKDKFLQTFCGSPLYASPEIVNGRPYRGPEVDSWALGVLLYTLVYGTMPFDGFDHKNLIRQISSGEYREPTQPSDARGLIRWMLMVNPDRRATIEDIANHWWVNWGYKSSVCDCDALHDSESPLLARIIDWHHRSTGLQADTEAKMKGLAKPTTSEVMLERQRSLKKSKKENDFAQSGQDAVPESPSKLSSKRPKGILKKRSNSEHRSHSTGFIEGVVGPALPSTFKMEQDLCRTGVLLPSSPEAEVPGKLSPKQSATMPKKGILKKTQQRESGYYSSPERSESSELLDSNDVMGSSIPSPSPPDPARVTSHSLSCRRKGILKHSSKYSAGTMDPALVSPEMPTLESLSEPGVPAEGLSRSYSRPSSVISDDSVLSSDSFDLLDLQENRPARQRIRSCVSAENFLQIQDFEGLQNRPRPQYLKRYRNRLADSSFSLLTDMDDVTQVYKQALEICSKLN
The note with it: ARK5; for remaining activity at 1 µM: read-out: % of control at 1 µM.

Assay [2] addresses T2, panel of 442 kinases (Homo sapiens, UniProt Q02779).
T2 construct: purchased Ambit Biosciences (scanMAXX KINOMEscan)
The note with it: kinase MLK2; for remaining activity at 1 µM: read-out: % of control at 1 µM.

The target of assay [3] is T3, panel of 442 kinases (Homo sapiens, UniProt O15146).
T3 construct: purchased Ambit Biosciences (scanMAXX KINOMEscan)
T3 sequence (O15146 24-869): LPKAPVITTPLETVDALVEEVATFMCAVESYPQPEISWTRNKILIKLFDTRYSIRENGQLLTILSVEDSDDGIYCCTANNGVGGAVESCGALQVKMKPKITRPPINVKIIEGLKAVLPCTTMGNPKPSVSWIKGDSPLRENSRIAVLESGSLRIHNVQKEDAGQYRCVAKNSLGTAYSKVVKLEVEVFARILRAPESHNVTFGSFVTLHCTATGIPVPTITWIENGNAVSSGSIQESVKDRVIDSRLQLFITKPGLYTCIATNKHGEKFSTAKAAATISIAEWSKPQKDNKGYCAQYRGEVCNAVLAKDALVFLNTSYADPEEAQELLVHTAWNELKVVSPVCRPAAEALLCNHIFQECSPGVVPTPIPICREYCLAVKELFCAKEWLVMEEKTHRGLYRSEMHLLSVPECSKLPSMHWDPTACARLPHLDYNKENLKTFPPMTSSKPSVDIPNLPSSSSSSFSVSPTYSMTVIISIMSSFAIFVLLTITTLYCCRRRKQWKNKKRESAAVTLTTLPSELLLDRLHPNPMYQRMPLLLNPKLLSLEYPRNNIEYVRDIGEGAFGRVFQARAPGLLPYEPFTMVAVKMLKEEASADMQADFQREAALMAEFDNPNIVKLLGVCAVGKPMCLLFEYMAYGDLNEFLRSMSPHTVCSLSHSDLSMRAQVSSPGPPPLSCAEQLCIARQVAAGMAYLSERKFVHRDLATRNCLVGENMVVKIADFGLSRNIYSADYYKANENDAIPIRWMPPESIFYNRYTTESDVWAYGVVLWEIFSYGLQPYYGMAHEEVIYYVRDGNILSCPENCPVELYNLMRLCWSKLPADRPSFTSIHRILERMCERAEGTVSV
The note with it: kinase MUSK; for remaining activity at 1 µM: read-out: % of control at 1 µM.

In assay [4] the target is T4, panel of 442 kinases (Homo sapiens, UniProt Q8N4C8).
T4 construct: purchased Ambit Biosciences (scanMAXX KINOMEscan)
The note with it: kinase MINK; for remaining activity at 1 µM: read-out: % of control at 1 µM.

Assay [5] addresses T5, panel of 442 kinases (Homo sapiens, UniProt Q15831).
T5 construct: purchased Ambit Biosciences (scanMAXX KINOMEscan)
T5 sequence (Q15831 1-433): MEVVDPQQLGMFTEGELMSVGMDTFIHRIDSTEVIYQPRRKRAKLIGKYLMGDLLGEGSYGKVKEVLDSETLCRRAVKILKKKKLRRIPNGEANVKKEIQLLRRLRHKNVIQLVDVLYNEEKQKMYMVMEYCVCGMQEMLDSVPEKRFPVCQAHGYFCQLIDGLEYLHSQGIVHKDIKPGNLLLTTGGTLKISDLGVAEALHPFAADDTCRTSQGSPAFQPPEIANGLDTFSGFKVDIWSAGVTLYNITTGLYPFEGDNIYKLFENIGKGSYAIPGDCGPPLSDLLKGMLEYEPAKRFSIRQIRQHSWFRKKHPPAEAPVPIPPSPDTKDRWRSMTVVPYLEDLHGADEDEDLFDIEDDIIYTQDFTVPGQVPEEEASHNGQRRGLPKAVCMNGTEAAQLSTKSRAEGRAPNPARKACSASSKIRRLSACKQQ
The note with it: kinase LKB1; for remaining activity at 1 µM: read-out: % of control at 1 µM.

Assay [6] addresses T6, panel of 442 kinases (Homo sapiens, UniProt Q13546).
T6 construct: purchased Ambit Biosciences (scanMAXX KINOMEscan)
T6 sequence (Q13546 1-671): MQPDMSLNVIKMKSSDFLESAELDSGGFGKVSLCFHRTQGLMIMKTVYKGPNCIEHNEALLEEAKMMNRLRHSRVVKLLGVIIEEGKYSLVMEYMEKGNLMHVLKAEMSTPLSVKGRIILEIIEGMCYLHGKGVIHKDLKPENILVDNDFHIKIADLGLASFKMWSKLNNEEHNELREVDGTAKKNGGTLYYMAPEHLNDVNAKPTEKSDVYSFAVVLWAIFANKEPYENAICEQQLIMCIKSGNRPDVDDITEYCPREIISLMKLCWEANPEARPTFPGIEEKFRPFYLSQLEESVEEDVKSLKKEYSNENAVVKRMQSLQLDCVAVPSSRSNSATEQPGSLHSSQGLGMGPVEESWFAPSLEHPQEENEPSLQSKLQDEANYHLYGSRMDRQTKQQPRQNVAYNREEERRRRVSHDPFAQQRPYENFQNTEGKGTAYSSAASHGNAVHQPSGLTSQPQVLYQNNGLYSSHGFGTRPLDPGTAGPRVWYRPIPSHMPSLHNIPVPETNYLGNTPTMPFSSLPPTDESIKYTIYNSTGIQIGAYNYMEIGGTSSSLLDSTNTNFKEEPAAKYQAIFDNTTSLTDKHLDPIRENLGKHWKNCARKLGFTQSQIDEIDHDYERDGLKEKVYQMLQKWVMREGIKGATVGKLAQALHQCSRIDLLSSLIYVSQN
The note with it: kinase RIPK1; for remaining activity at 1 µM: read-out: RIPK1 (% of control at 1 µM).

The mark [7] stands for this setting: 10 µM, read-out: % of control at 10 µM.

T4 sequence (Q8N4C8 whole entry): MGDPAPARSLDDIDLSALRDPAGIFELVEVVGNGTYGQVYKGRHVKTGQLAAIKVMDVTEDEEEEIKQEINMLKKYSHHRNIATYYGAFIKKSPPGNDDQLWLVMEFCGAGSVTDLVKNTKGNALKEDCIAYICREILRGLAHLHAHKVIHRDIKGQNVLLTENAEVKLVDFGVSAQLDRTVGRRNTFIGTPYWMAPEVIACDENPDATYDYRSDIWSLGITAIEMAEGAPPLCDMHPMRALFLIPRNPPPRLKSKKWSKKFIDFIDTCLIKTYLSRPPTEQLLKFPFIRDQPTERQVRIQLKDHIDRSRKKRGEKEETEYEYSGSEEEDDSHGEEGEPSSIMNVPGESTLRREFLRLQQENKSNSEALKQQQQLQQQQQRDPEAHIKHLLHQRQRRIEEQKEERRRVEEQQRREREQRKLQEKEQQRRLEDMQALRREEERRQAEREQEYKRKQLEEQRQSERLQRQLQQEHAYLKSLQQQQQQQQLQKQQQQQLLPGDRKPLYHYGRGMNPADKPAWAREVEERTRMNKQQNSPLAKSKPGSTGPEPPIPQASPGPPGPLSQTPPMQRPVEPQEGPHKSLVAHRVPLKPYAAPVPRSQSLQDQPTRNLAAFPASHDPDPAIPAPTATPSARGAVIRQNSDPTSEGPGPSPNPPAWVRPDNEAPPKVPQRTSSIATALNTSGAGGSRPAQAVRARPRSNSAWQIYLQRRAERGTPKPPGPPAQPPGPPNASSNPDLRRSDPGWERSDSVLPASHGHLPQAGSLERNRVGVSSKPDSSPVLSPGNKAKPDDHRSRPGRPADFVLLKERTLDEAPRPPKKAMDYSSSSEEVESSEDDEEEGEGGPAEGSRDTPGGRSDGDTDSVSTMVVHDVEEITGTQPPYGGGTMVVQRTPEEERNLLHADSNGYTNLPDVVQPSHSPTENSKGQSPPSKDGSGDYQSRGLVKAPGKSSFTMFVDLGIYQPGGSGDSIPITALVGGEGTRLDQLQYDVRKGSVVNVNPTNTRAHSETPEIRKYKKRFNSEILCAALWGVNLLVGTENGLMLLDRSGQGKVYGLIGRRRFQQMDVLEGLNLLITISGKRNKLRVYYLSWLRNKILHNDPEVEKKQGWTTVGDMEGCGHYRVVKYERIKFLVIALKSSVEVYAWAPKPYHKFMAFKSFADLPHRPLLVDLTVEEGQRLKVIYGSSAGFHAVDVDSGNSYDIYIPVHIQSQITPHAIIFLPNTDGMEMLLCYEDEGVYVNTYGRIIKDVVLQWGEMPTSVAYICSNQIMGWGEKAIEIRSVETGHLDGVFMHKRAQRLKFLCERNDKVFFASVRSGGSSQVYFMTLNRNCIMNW
T2 sequence (Q02779 whole entry): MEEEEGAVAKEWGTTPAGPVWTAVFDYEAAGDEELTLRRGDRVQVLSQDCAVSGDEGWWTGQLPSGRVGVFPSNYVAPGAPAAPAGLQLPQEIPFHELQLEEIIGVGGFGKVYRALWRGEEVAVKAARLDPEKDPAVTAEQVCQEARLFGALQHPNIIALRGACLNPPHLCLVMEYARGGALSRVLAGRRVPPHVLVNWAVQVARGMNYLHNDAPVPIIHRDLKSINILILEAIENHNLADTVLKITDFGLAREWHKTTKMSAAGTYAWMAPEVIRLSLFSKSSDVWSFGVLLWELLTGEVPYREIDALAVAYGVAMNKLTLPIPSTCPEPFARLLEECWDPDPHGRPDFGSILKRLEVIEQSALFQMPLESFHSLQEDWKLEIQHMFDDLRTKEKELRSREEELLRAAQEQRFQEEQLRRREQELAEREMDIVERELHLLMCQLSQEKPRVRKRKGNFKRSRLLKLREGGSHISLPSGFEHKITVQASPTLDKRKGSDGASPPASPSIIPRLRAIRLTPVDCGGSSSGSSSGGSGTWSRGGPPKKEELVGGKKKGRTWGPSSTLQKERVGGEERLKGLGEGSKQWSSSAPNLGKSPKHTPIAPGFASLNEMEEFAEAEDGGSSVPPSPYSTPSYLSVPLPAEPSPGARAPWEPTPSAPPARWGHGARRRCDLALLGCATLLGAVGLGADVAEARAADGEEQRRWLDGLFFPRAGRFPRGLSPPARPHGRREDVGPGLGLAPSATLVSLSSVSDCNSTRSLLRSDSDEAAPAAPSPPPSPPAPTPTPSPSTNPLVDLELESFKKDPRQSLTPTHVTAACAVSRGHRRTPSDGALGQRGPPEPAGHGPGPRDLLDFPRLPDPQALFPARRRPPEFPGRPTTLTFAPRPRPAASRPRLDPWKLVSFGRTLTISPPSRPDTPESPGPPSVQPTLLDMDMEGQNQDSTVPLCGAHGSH

Take `Nc1cc(C(F)(F)F)c(-c2cc(N3CCOCC3)nc(N3CCOCC3)n2)cn1` [Buparlisib]: the remaining activity at 1 µM was 100% in assay [1]; 100% in assay [2]; 86% in assay [3]; 100% in assay [4]; 100% in assay [5]; 100% in assay [6]. The remaining activity at 10 µM in assay [1] (setting [7]) was determined as 100%; in assay [2] (setting [7]), 100%; in assay [3] (setting [7]), 55%; in assay [4] (setting [7]), 100%; in assay [5] (setting [7]), 99%; in assay [6] (10 µM, read-out: RIPK1 (% of control at 10 µM)), 100%.
As to `Cn1c(=O)n(-c2ccc(C(C)(C)C#N)cc2)c2c3cc(-c4cnc5ccccc5c4)ccc3ncc21` [Dactolisib, 2-methyl-2-[4-(3-methyl-2-oxo-8-quinolin-3-yl-2,3-dihydroimidazo[4,5-c]quinolin-1-yl)-phenyl] propionitrile], the remaining activity at 1 µM was determined as 32% in assay [1]; 100% in assay [2]; 100% in assay [3]; 49% in assay [4]; 93% in assay [5]; 91% in assay [6].
Regarding `FC(F)c1nc2ccccc2n1-c1nc(N2CCOCC2)nc(N2CCOCC2)n1` [ZSTK474, 2-(difluoromethyl)-1-[4,6-di(4-morpholinyl)-1,3,5-triazin-2-yl]-1H-benzimidazole], the remaining activity at 1 µM came to 100% in assay [1]; 100% in assay [2]; 100% in assay [3]; 100% in assay [4]; 100% in assay [5]; 98% in assay [6].
As for `COc1ncc(-c2ccc3nccc(-c4ccnnc4)c3c2)cc1NS(=O)(=O)c1ccc(F)cc1F` [Omipalisib], the remaining activity at 1 µM in assay [1] came out at 100%; in assay [2], 98%; in assay [3], 100%; in assay [4], 83%; in assay [5] it was 100%; in assay [6], 78%.

Source of the values: paper PMC5564600 (Oncotarget, 2017).
